{"source": "patent US20260335398A1", "about": "“METHODS FOR TREATING PANCREATIC CANCER WITH A COMBINATION OF DES-METHYL PATEAMINE A AND A CLASS I HDAC INHIBITOR” (Baylor University, priority 2023, published 2026)", "key": {"MIA PaCa-2 cells": {"system": "MIA PaCa-2 cells", "assay": "Seahorse XF Real-Time ATP Rate Assay (FIG. 8A)", "format": "cell-based", "details": "6 h romidepsin then 12 h washout with or without 2 nM DMPatA", "method": "FIG. 8A compares quantification of ATP production rates. Seahorse XF Real-Time ATP Rate Assay was performed under control conditions or after treatment with the combination and single agents. Treatment was for a total of 18 h (i.e., 6-hour romidepsin followed by 12-hour washout with 2 nM DMPatA (combo) or without (Romi alone)). FIG. 8A left panel—ATP production rate from mitochondrial respiration (Mito-ATP); FIG. 8A right panel—ATP production rate from glycolysis (Glyco-ATP). At least two biological replicate experiments with n=3 technical replicates were performed. Statistical significance was determined by one-way ANOVA using Tukey multiple comparison's test in the Prism software. *p value<0.01.\nBecause reprograming/augmentation of cellular metabolism by c-MYC is known to support oncogenesis, the Seahorse XF analyzer was used to assess the impact of the treatments on c-MYC-driven metabolism including ATP production, glycolysis, and mitochondrial oxidative phosphorylation (OXPHOS). Extracellular acidification rates, also known as proton efflux rate (PER), were measured for glycolysis and mitochondrial oxygen consumption rates (OCR) for OXPHOS. […]\nOxygen consumption rates (OCR) and extracellular acidification rates (ECAR) were measured using the XF96 Extracellular Flux analyzer (Seahorse Bioscience). […]"}, "[1]": {"assay": "Body weight of xenograft mice (FIG. 2B)", "format": "in vivo, athymic nude mice", "details": "IP; romidepsin 0.75 mg/kg, DMPatA 0.075 mg/kg", "description": "FIGS. 2A and 2B illustrate the results of a MIA PaCa-2 xenograft model of PDAC in male athymic nude mice. FIG. 2A compares tumor growth (mm^3) in mice treated with the indicated concentrations of combination, romidepsin and DMPatA using IP route and vehicles described in the materials and methods section below. FIG. 2B compares body weight (g) of mice treated with the combination and single agents following treatment. FIGS. 2C and 2D compare quantification of H3K9ac and c-MYC antibodies. Frozen sections from MIA PaCa-2 xenograft tumor tissues were subjected to immunohistochemical analysis using antibodies against H3K9ac, and c-MYC. Fluorescence images were captured using fluorescent microscopy and the fluorescent signal from H3K9ac and c-MYC antibodies were quantified. To quantify fluorescence intensity at least 500 cells per condition were measured for each antibody at 40× magnification. The median of the signal intensity is shown. Statistical significance was determined by one-way ANOVA using Tukey multiple comparisons test, ****p value<0.0001.\nAnimal studies were performed according to Institutional Animal Care and Use Committee (IACUC) protocol number AC-AABD2601. Following the establishment of initial dose levels for individual drugs, efficacy of the combination and single agents in a MIA PaCa-2 xenograft model was assessed at a tolerable dose and schedule. […]"}, "cells": {"system": "cells", "details": "50 nM, 6-hour exposure; cited from earlier work"}}}
{"molecule": "C/C=C1\\NC(=O)[C@H]2CSSCC/C=C/[C@H](CC(=O)N[C@H](C(C)C)C(=O)N2)OC(=O)[C@H](C(C)C)NC1=O", "note": "[romidepsin]", "values": [{"measurement": "glycolytic ATP production (Glyco-ATP)", "setting": "MIA PaCa-2 cells", "value": "reduced"}, {"measurement": "mitochondrial ATP production (Mito-ATP)", "setting": "MIA PaCa-2 cells", "value": "reduced"}, {"measurement": "body weight vs vehicle", "setting": "[1]", "value": "neither the single agent nor the combination treatments had a significant impact on weight"}, {"measurement": "susceptibility of cells to romidepsin", "setting": "cells", "value": "Only a subset of cells susceptible"}]}
